Like-named read-outs stand apart in the source and are kept apart here.
What was measured:
[1] = biological target: CSR3 (RNase III of SPCSV) (Sweet potato chlorotic stunt virus, UniProt Q8JJW8); assay: Kinetic-based FRET dose-response assay (IC50, DSS); assay type: biochemical; conditions: for DSS Comm 1 / DSS FIMM1 / DSS FIMM 2: drug sensitivity score; for DSS Comm 1: repeat Comm 1; for DSS FIMM1: repeat FIMM 1; for DSS FIMM 2: repeat FIMM 2
Protocol: A dose-response assay with six concentrations (1.25 nM to 50 μM) was carried out in three independent experiments, which included two tests with the 112 selected FIMM compounds (i.e., compounds prepared by the HTB-FIMM) and one test using the newly ordered commercial compounds (99 of the 112 compounds, i.e., compounds prepared by a second supplier). A dose-response curve was generated for each compound based on PI values as a function of the concentration.
The HTS assay was designed based on FRET using a 22-bp siRNA (forward sequence, […]; reverse sequence, […]) with a 2-nucleotide (nt) 3′ overhang labeled with the fluorescent dye 6-carboxyfluorescein (FAM) and a black hole quencher (BHQ1) on the sense strand (Metabion, Munich, Germany). Screening was initially carried out at one concentration (10 μM) in a 20-μl reaction buffer. […] All reaction mixtures contained 50 nM CSR3 and 375 nM labeled siRNA in 384-well black flat-bottom microplates (Corning, NY, USA) and were prepared using a BioTek MultiFlo FX dispenser with single-channel random access dispenser cassettes (BioTek, Winooski, VT, USA). The plates were read with a PHERAstar FS reader (BMG Labtech, Ortenberg, Germany).
(§1) For HTS, the activity of CSR3 was calculated by measuring the change in fluorescence as a function of the reaction time using MARS Data Analysis software (BMG Labtech). To evaluate the CSR3 inhibition efficiency of individual compounds, the PI of each compound was calculated using the slope values for the sample, positive control, and negative control according to the following equation: PI = 100 × [1 − (sample − positive)/(negative − positive)]%. IC50 and DSS values were calculated using concentration-specific PI values according to a previous study ([31]). Relative gene expression was calculated using the classical 2^−ΔΔ^CT method ([63]).

sweetpotato plants = conditions: 50 μM in culture medium
SPFMV = assay: Virus accumulation (RT-qPCR of coat protein RNA) in coinfected sweetpotato plants grown in culture medium: SPFMV; assay type: in vivo, Sweet potato feathery mottle virus; conditions: for SPFMV_FC (fold change of viral accumulation): 50 μM in culture medium, 28 days, relative to DMSO control; for SPFMV accumulation reduced / viral titer SPFMV (log2 fold change relative to controls): plants in culture medium, 50 μM
Protocol: (§2) Since tests in culture medium consume smaller amounts of compounds and can be carried out under relatively controlled conditions, sweetpotato plants coinfected with SPCSV and SPFMV were grown in medium supplemented with one of the 30 inhibitor candidates at a concentration of 50 μM. Their effects on plant growth were monitored by imaging the plants once a week. […] In addition, virus accumulation was quantified by measuring the relative abundance of the transcripts encoding viral coat proteins using RT-qPCR ([32]). The effect of individual compounds on virus accumulation was estimated by comparing treated and control plants.
(§3) Sweetpotato plants cultivar 'Huachano' (accession CIP420065) were side-graft inoculated with both SPFMV (East African strain isolate Nam1) and SPCSV-Ug (East African serotype 2) as described previously ([62]). Plantlets were propagated by taking single-node stems grown in a plant culture medium ([33]). Next, plantlets with newly formed roots were transferred to glass tubes (18 by 150 mm) containing 10 ml of medium supplemented with either 50 μM compound (diluted in DMSO; final DMSO concentration, 0.1%) or only 0.1% DMSO as a control. For plant experiments in soil, plantlets were transferred to pots (6 by 6 by 10 cm) filled with a mixture of sand, humus, and washed soil. After 1 week, plants were treated by foliar spraying using either individual compounds at a single concentration (10 μM) (treatment) or water (control/mock) twice a week for 1 month. All plants were grown at 22°C with 60% humidity and a 16-h light/8-h dark photoperiod for 28 days in culture medium and for 41 days in soil. The Finnish National Plant Phenotyping Infrastructure (NaPPI) was used to monitor plant viral disease symptoms as described in our previous study ([33]). Four compounds were tested with the phenotyping platform in two independent batches, each of which included five biological replicates.
(§4) Leaf samples were collected from plants grown in culture medium or soil for 28 or 41 days, respectively, and frozen in liquid nitrogen. Total RNA was extracted using the Spectrum plant total RNA kit (Sigma-Aldrich). First-strand cDNA was synthesized using the Transcriptor first-strand cDNA synthesis kit (Roche, Basel, Switzerland). […] All RT-qPCR experiments were conducted in triplicate on three and five biological replicates from plants grown in culture medium and soil, respectively. The primer list can be found in our previous study ([33]).
as §1

CSR3 = biological target: T1, CSR3 (Sweet potato chlorotic stunt virus, UniProt Q8JJW8); assay: Binding affinity assay using MST; conditions: for Comments: MST behaviour of compound (V-shape response, fluorescence quenching, interference, aggregator); for Binding (Yes/No): MST binding call; for Binding (Yes/No) / Response Amplitude: Table S4; for Response Amplitude: MST response amplitude
T1 sequence (Q8JJW8 1-228): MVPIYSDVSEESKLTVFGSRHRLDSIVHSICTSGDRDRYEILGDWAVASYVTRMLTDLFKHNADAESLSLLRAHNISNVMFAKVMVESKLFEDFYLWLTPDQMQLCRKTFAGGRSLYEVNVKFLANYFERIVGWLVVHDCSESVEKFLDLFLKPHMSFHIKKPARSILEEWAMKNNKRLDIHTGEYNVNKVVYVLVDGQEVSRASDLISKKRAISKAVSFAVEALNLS
Protocol: Binding affinity assays were first carried out with the 99 commercial compounds using the MST method.
The labeled-protein solution containing 500 nM proteins and 40 nM dye was prepared in PBS buffer with 2% dimethyl sulfoxide (DMSO) for the assay. The 12 concentrations for each compound were obtained by 2-fold serial dilutions (0.2 μM to 400 μM). […] Two independent experiments were carried out in premium coated capillaries (NanoTemper, Munich, Germany) using a Monolith NT.Automated instrument (NanoTemper) with the power set at high (80%), the light-emitting diode (LED) power (pico red) set at 5%, and the on-time set at 20 s. The dissociation constant (Kd) was determined using the MO.Affinity Analysis program (NanoTemper).

SPCSV = assay: Virus accumulation (RT-qPCR of coat protein RNA) in coinfected sweetpotato plants grown in culture medium: SPCSV; assay type: in vivo, Sweet potato chlorotic stunt virus; conditions: for SPCSV_FC (fold change of viral accumulation): 50 μM in culture medium, 28 days, relative to DMSO control; for SPCSV accumulation reduced / viral titer SPCSV (log2 fold change relative to controls): plants in culture medium, 50 μM
Protocol: as §2, §3, §4, §1

[2] = repeat Comm 1 (commercial compounds), 1.25 nM to 50 μM, unit inferred, numbers match nM, read-out: IC50 Comm 1
[3] = repeat FIMM 1 (FIMM library compounds), 1.25 nM to 50 μM, unit inferred, numbers match nM (cf. Fig 5A), read-out: IC50 FIMM1
[4] = repeat FIMM 2 (FIMM library compounds), 1.25 nM to 50 μM, unit inferred, numbers match nM, read-out: IC50 FIMM 2
[5] = kinetic-based HTS, Fig 5A summary
[6] = read-out: IC50 Comm 1, repeat Comm 1 (commercial compounds), 1.25 nM to 50 μM, unit inferred, numbers match nM
[7] = read-out: IC50 FIMM 2, repeat FIMM 2 (FIMM library compounds), 1.25 nM to 50 μM, unit inferred, numbers match nM

SMILES	DSS Comm 1 [1]	DSS FIMM1 [1]	DSS FIMM 2 [1]	IC50 [1, 2]	IC50 [1, 3]	IC50 [1, 4]	Toxicity (sweetpotato plants)	SPFMV_FC (fold change of viral accumulation) (SPFMV)	Comments (CSR3)	Binding (Yes/No) (CSR3)	Response Amplitude (CSR3)	SPCSV_FC (fold change of viral accumulation) (SPCSV)	DSS [1, 5]	IC50 [1, 5]	IC50 [1, 6]	IC50 [1, 7]	SPFMV accumulation reduced (SPFMV)	viral titer SPFMV (log2 fold change relative to controls) (SPFMV)	SPCSV accumulation reduced (SPCSV)	viral titer SPCSV (log2 fold change relative to controls) (SPCSV)
O=C1c2c(O)ccc(O)c2C(=O)c2c(NCCNCCO)ccc(NCCNCCO)c21 [FIMM000490]	16.9	14.9	15.5	1200 nM	1810 nM	1640 nM	no	1.747	Interference	No	0	0.2453								
O=C(O)c1ccc(C2Nc3c(Br)cccc3C3C=CCC32)cc1 (centres unmarked) [FIMM022230]	5.4	13.8	14.3		1860 nM		no	0.2613		No	68	0.08458	13.8	~1860 nM	12000 nM	1550 nM	~4 fold	−1.93	approximately 8 fold	−3.56
Cc1ccc(C2Nc3ccc(C(=O)O)cc3C3C=CCC32)cc1 (centres unmarked) [FIMM031755]	7.7	15.9	16.2				no	0.5653		No	0	0.5163	15.9	~1270 nM	7380 nM	1240 nM	~2 fold	−0.82	~2 fold	−0.95
COc1cc(C=C2C(=O)NC(=S)NC2=O)ccc1OCc1ccccc1[N+](=O)[O-] [FIMM101864]	6.4	11.2	8	1690 nM	3850 nM	7240 nM		1.376	Aggregator	No	0	0.5034								

Reference: article PMC8315922, “In Vitro Identification and In Vivo Confirmation of Inhibitors for Sweet Potato Chlorotic Stunt Virus RNA Silencing Suppressor, a Viral RNase III” (Journal of Virology, 2021)
